According to patent US11033604B2, “Reagents and methods for treating bacterial infection” (priority 2018, dated 2021):
Positions of bridges follow the written chain, without caps; N, C: chain ends. Non-standard residues stand in square brackets, D forms with d. No end group written: not given here.

Experiments:
[1] = tested on: S. aureus SH1000 WT biofilms; test: ThT fluorescence assay of amyloid formation in S. aureus SH1000 WT biofilm cultures; type: cell-based, Staphylococcus aureus; settings: 24 h, 37° C., peptide 80 μM unless otherwise noted, vs peptide-free control
Experimental: We developed a novel protocol to identify amyloid fibril formation during biofilm development in two S. aureus strains—SH1000 WT, a rsbU^+ laboratory strain^27, and MN8, a clinical strain isolated from the human urogenital tract (Table 1). After 24 hours of batch growth in microtiter plates, biofilms were washed and incubated with Thioflavin T (ThT), and the resulting fluorescence signals served as a proxy for the extent of PSM fibril formation in the EM (FIG. 1A). Next, we utilized this assay to test α-sheet amyloid inhibitor designs and control peptides (sequences provided in Table 2) in batch biofilm cultures. The first inhibitor used is AP90 (Alternating Peptide #90, referred to as α1 previously^25,26). […]
Overnight cultures of S. aureus (see Table 1 for a list of strains used in this study) were spun down and re-suspended in fresh Luria-Bertani (LB) media to an optical density of 0.1 (600 nm). […] The detached biofilm suspensions were transferred to a 96-well black-walled plate (Corning, TC-treated polystyrene) and ThT fluorescence was read at 438/495 nm on a Perkin-Elmer Enspire™ plate reader. Fluorescence measurements were corrected by subtracting the background intensity of identical samples without ThT. […] After 15 minutes of incubation at room temperature, fluorescence ratios of the two dyes were determined using a Perkin-Elmer Enspire™ plate reader.

SA = test: Crystal violet biofilm assay; type: cell-based, Staphylococcus aureus
From the text: Furthermore, these same inhibitors are active against EC, SE, and SM.

[2] = tested on: bacterial biofilm on glass disks; test: Biofilm formation on α-sheet peptide coated glass disk; type: cell-based; settings: polydopamine-grafted peptide, FIG. 17 (dimeric AP193)
From the text: FIG. 17. Bacterial adherence and growth of biofilm on glass disks and decreased adhesion of bacteria (GFP signal) and biofilm and amyloid formation (Brightfield image) when glass is coated with α-sheet peptides, shown for dimeric AP193. This is a model for biofilm formation on implanted devices such as prosthetic joints.
We have conjugated α-sheet peptides to other functional molecules to enhance their efficacy at the site of biofilm infection, i.e., the surface of biomedical implants. To this end, we used a polydopamine (PDA) coating approach to facilitate attachment of α-sheet peptides to biomedical implant materials. […]
For α-sheet peptide grafting, 0.5 mg/mL peptide (e.g. AP90, AP193, or P1 as a control) was dissolved in 10 mM Tris pH 8.0 and then applied to PDA-coated substrates for overnight reaction (18 hours). […] First, the concentration of peptide remaining in solution after conjugation was measured by NanoOrange™ assay to determine coupling efficiency and surface density. Second, accessibility of α-sheet peptides on the surface was determined by immunofluorescence; PGPMs were blocked with 5% BSA solution for 12 h, incubated with AlexaFluor®568-conjugated Pac53 antibody (which recognizes α-sheet peptides), and then washed and imaged on a fluorescent microscope to ensure attachment to the disks. […]

## RGEmNlCwMNEYSGWcMnLkMGR (RGE[dM]N[dL]C[dW]MNEYSGW[dC]M[dN]L[dK]MGR; disulfide 7-16 (inferred)) [AP407, variant of AP90 with a disulfide bond]
[1]
  Reduction of amyloid fibril formation (ThT fluorescence): 56%

## RGEmNlSwMNEYSGWtMnLkMGR (RGEMNLSWMNEYSGWTMNLKMGR; not fully specified (residues 4, 6, 8, 16, 18, 20); printed as RGEmNlSwMNEYSGWtMnLkMGR) [AP90]
SA
  Biofilm inhibition (crystal violet, FIG. 10): inhibition

## RGEmNyFwMNEYYGWtMnCkMGR (RGE[dM]N[dY]F[dW]MNEYYGW[dT]M[dN]C[dK]MGR) [AP193, hydrophobic AP90 derivative, variant to support different chemical coupling reactions]
[2]
  Amount of bacterial biofilm on peptide-coated glass disk: dramatic drop in the amount of bacterial biofilm
